# Laboratory results: patent US20040208783A1, “Process for the chemical and thermal disinfection” (priority 2003, published 2004)
# Columns and labels:
# Format in all cases: cell-based
# [1] = test system: bacteria, fungi and mycobacteria; experiment: Quantitative suspension tests, summary of activity in words
# Pseudomonas aeruginosa = experiment: Quantitative suspension test, reduction factors (Test 1)
# Method: (§1) Reduction factors were obtained with various solutions for use (SA=Staphylococcus aureus, PA=Pseudomonas aeruginosa, EC=Escherichia coli, CA=Candida albicans, AN=Aspergillus niger, MT=Mycobacterium terrae), initial microbe count 0.8−5×10^9/ml, for CA 2×10^7/ml, neutralizer Tryp-NaCl-TLSH (No. 22). Concerning the activity on Mycobacterium terrae, cf.
# (§2) […] After acting for times of 5, 15, 30 and 60 minutes, 1 ml samples of the disinfectant/microbe mixture are taken and transferred into 9 ml of inactivation liquid (0.1% tryptone+0.85% NaCl in double-distilled water+inactivators). After a contact time not exceeding 30 minutes in the inactivation liquid, dilutions (10^−2 and 10^−4 in 0.1% tryptone+0.85% NaCl in double-distilled water) are made up. 0.1 ml samples of the inactivation liquid and the two dilutions are then transferred by spatula onto 3 CSA plates for each. As a control, the respective test microbe suspension is mixed with 10 ml of WSH in place of disinfectant. Subcultures are to be set up from this batch in the same way in parallel with the corresponding action times.
# (§3) All subcultures are incubated at 37° C. for 48 hours, in the case of Candida albicans at 37° C. for 72 hours, and the colonies are counted. The reduction is calculated as follows: CFU between 20 and 300 per CSA plate are to be evaluated. After determination of the arithmetic mean of three values, the disinfectant effect (GRt) per unit time is calculated from the formula GRt=logCFU(co) minus logCFU(D) in which CFU(co) is the number of CFU per ml without exposure to the product, and CFU(D) is the number of CFU per ml after exposure to the product.
# Aspergillus niger = experiment: as above
# Method: as §1, §2, §3
# Candida albicans = experiment: as above
# Method: as §1, §2, §3
# Staphylococcus aureus = experiment: as above
# Method: as §1, §2, §3
# Escherichia coli = experiment: as above
# Method: as §1, §2, §3
# [2] = test system: Mycobacterium terrae (ATCC15755); experiment: Mycobacterium terrae quantitative suspension test without stress (Test 2); conditions: for Reduction factor: 0.1%
smiles,measurement,setting,value
"CCCCC(CC)COCC(O)CO (centres unmarked) [SC 50, 1-(2-Ethylhexyl)glycerol ether]",Activity (in words),"[1]; 0.1% by weight solution, 50° C.","broad activity on gram-positive and gram-negative bacteria, yeasts and mycobacteria"
same,Activity (in words),"[1]; 0.1% by weight, low temperature",virtually no antimicrobial activity
same,Activity on bacteria (gram-positive and gram-negative) and mycobacteria (in words),[1]; above 25° C.,particularly active
same,Activity on yeasts (e.g. Candida albicans) and moulds (e.g. Aspergillus niger) (in words),[1]; use concentration 0.1% by weight,still requires improvement
same,Reduction factor,"Pseudomonas aeruginosa; 0.05%, 30° C., 15′",0.00
same,Reduction factor,"Pseudomonas aeruginosa; 0.05%, 30° C., 30′",0.00
same,Reduction factor,"Pseudomonas aeruginosa; 0.05%, 30° C., 60′",0.00
same,Reduction factor,"Pseudomonas aeruginosa; 0.05%, 40° C., 15′",0.00
same,Reduction factor,"Pseudomonas aeruginosa; 0.05%, 40° C., 30′",0.00
same,Reduction factor,"Pseudomonas aeruginosa; 0.05%, 40° C., 60′",0.00
same,Reduction factor,"Pseudomonas aeruginosa; 0.05%, 50° C., 15′",0.00
same,Reduction factor,"Pseudomonas aeruginosa; 0.05%, 50° C., 30′",0.85
same,Reduction factor,"Pseudomonas aeruginosa; 0.05%, 50° C., 60′",0.96
same,Reduction factor,"Pseudomonas aeruginosa; 0.05%, room temperature, 15′",0.00
same,Reduction factor,"Pseudomonas aeruginosa; 0.05%, room temperature, 30′",0.00
same,Reduction factor,"Pseudomonas aeruginosa; 0.05%, room temperature, 60′",0.00
same,Reduction factor,"Pseudomonas aeruginosa; 0.1%, 30° C., 15′",0.00
same,Reduction factor,"Pseudomonas aeruginosa; 0.1%, 30° C., 30′",0.00
same,Reduction factor,"Pseudomonas aeruginosa; 0.1%, 30° C., 60′",1.01
same,Reduction factor,"Pseudomonas aeruginosa; 0.1%, 40° C., 15′",1.03
same,Reduction factor,"Pseudomonas aeruginosa; 0.1%, 40° C., 30′",1.10
same,Reduction factor,"Pseudomonas aeruginosa; 0.1%, 40° C., 60′",1.14
same,Reduction factor,"Pseudomonas aeruginosa; 0.1%, 50° C., 15′",3.55
same,Reduction factor,"Pseudomonas aeruginosa; 0.1%, 50° C., 30′",3.50
same,Reduction factor,"Pseudomonas aeruginosa; 0.1%, 50° C., 60′",4.00
same,Reduction factor,"Pseudomonas aeruginosa; 0.1%, room temperature, 15′",0.00
same,Reduction factor,"Pseudomonas aeruginosa; 0.1%, room temperature, 30′",0.00
same,Reduction factor,"Pseudomonas aeruginosa; 0.1%, room temperature, 60′",0.00
same,Reduction factor,"Aspergillus niger; 0.05%, 30° C., 15′",0.08
same,Reduction factor,"Aspergillus niger; 0.05%, 30° C., 30′",0.70
same,Reduction factor,"Aspergillus niger; 0.05%, 30° C., 60′",0.60
same,Reduction factor,"Aspergillus niger; 0.05%, 50° C., 15′",0.12
same,Reduction factor,"Aspergillus niger; 0.05%, 50° C., 30′",0.12
same,Reduction factor,"Aspergillus niger; 0.05%, 50° C., 60′",−0.12
same,Reduction factor,"Aspergillus niger; 0.05%, room temperature, 15′",0.30
same,Reduction factor,"Aspergillus niger; 0.05%, room temperature, 30′",−0.10
same,Reduction factor,"Aspergillus niger; 0.05%, room temperature, 60′",0.22
same,Reduction factor,"Aspergillus niger; 0.1%, 30° C., 15′",0.30
same,Reduction factor,"Aspergillus niger; 0.1%, 30° C., 30′",0.70
same,Reduction factor,"Aspergillus niger; 0.1%, 30° C., 60′",0.60
same,Reduction factor,"Aspergillus niger; 0.1%, 50° C., 15′",−0.10
same,Reduction factor,"Aspergillus niger; 0.1%, 50° C., 30′",0.30
same,Reduction factor,"Aspergillus niger; 0.1%, 50° C., 60′",0.18
same,Reduction factor,"Aspergillus niger; 0.1%, room temperature, 15′",−0.35
same,Reduction factor,"Aspergillus niger; 0.1%, room temperature, 30′",−0.10
same,Reduction factor,"Aspergillus niger; 0.1%, room temperature, 60′",0.40
same,Reduction factor,"Candida albicans; 0.05%, 30° C., 15′",0.00
same,Reduction factor,"Candida albicans; 0.05%, 30° C., 30′",0.00
same,Reduction factor,"Candida albicans; 0.05%, 30° C., 60′",0.00
same,Reduction factor,"Candida albicans; 0.05%, 40° C., 15′",0.54
same,Reduction factor,"Candida albicans; 0.05%, 40° C., 30′",0.45
same,Reduction factor,"Candida albicans; 0.05%, 40° C., 60′",0.59
same,Reduction factor,"Candida albicans; 0.05%, 50° C., 15′",0.00
same,Reduction factor,"Candida albicans; 0.05%, 50° C., 30′",0.00
same,Reduction factor,"Candida albicans; 0.05%, 50° C., 60′",1.08
same,Reduction factor,"Candida albicans; 0.05%, room temperature, 15′",0.00
same,Reduction factor,"Candida albicans; 0.05%, room temperature, 30′",0.00
same,Reduction factor,"Candida albicans; 0.05%, room temperature, 60′",0.00
same,Reduction factor,"Candida albicans; 0.1%, 30° C., 15′",0.10
same,Reduction factor,"Candida albicans; 0.1%, 30° C., 30′",−0.08
same,Reduction factor,"Candida albicans; 0.1%, 30° C., 60′",0.64
same,Reduction factor,"Candida albicans; 0.1%, 40° C., 15′",0.55
same,Reduction factor,"Candida albicans; 0.1%, 40° C., 30′",0.46
same,Reduction factor,"Candida albicans; 0.1%, 40° C., 60′",0.65
same,Reduction factor,"Candida albicans; 0.1%, 50° C., 15′",1.07
same,Reduction factor,"Candida albicans; 0.1%, 50° C., 30′",1.53
same,Reduction factor,"Candida albicans; 0.1%, 50° C., 60′",4.20
same,Reduction factor,"Candida albicans; 0.1%, room temperature, 15′",0.00
same,Reduction factor,"Candida albicans; 0.1%, room temperature, 30′",0.00
same,Reduction factor,"Candida albicans; 0.1%, room temperature, 60′",0.00
same,Reduction factor,"Staphylococcus aureus; 0.05%, 30° C., 15′",0.00
same,Reduction factor,"Staphylococcus aureus; 0.05%, 30° C., 30′",0.00
same,Reduction factor,"Staphylococcus aureus; 0.05%, 30° C., 60′",0.00
same,Reduction factor,"Staphylococcus aureus; 0.05%, 40° C., 15′",0.70
same,Reduction factor,"Staphylococcus aureus; 0.05%, 40° C., 30′",0.88
same,Reduction factor,"Staphylococcus aureus; 0.05%, 40° C., 60′",0.57
same,Reduction factor,"Staphylococcus aureus; 0.05%, 50° C., 15′",0.58
same,Reduction factor,"Staphylococcus aureus; 0.05%, 50° C., 30′",0.81
same,Reduction factor,"Staphylococcus aureus; 0.05%, 50° C., 60′",0.29
same,Reduction factor,"Staphylococcus aureus; 0.05%, room temperature, 15′",0.00
same,Reduction factor,"Staphylococcus aureus; 0.05%, room temperature, 30′",0.00
same,Reduction factor,"Staphylococcus aureus; 0.05%, room temperature, 60′",0.00
same,Reduction factor,"Staphylococcus aureus; 0.1%, 30° C., 15′",0.78
same,Reduction factor,"Staphylococcus aureus; 0.1%, 30° C., 30′",0.53
same,Reduction factor,"Staphylococcus aureus; 0.1%, 30° C., 60′",0.35
same,Reduction factor,"Staphylococcus aureus; 0.1%, 40° C., 15′",0.97
same,Reduction factor,"Staphylococcus aureus; 0.1%, 40° C., 30′",1.56
same,Reduction factor,"Staphylococcus aureus; 0.1%, 40° C., 60′",1.45
same,Reduction factor,"Staphylococcus aureus; 0.1%, 50° C., 15′",2.44
same,Reduction factor,"Staphylococcus aureus; 0.1%, 50° C., 30′",4.93
same,Reduction factor,"Staphylococcus aureus; 0.1%, 50° C., 60′",4.70
same,Reduction factor,"Staphylococcus aureus; 0.1%, room temperature, 15′",0.00
same,Reduction factor,"Staphylococcus aureus; 0.1%, room temperature, 30′",0.00
same,Reduction factor,"Staphylococcus aureus; 0.1%, room temperature, 60′",0.96
same,Reduction factor,"Escherichia coli; 0.05%, 30° C., 15′",0.13
same,Reduction factor,"Escherichia coli; 0.05%, 30° C., 30′",0.25
same,Reduction factor,"Escherichia coli; 0.05%, 30° C., 60′",0.36
same,Reduction factor,"Escherichia coli; 0.05%, 40° C., 15′",0.00
same,Reduction factor,"Escherichia coli; 0.05%, 40° C., 30′",0.00
same,Reduction factor,"Escherichia coli; 0.05%, 40° C., 60′",0.00
same,Reduction factor,"Escherichia coli; 0.05%, 50° C., 15′",1.17
same,Reduction factor,"Escherichia coli; 0.05%, 50° C., 30′",1.70
same,Reduction factor,"Escherichia coli; 0.05%, 50° C., 60′",2.85
same,Reduction factor,"Escherichia coli; 0.05%, room temperature, 15′",0.00
same,Reduction factor,"Escherichia coli; 0.05%, room temperature, 30′",0.43
same,Reduction factor,"Escherichia coli; 0.05%, room temperature, 60′",0.25
same,Reduction factor,"Escherichia coli; 0.1%, 30° C., 15′",0.54
same,Reduction factor,"Escherichia coli; 0.1%, 30° C., 30′",0.58
same,Reduction factor,"Escherichia coli; 0.1%, 30° C., 60′",1.15
same,Reduction factor,"Escherichia coli; 0.1%, 40° C., 15′",1.84
same,Reduction factor,"Escherichia coli; 0.1%, 40° C., 30′",3.27
same,Reduction factor,"Escherichia coli; 0.1%, 40° C., 60′",3.46
same,Reduction factor,"Escherichia coli; 0.1%, 50° C., 15′",3.74
same,Reduction factor,"Escherichia coli; 0.1%, 50° C., 30′",4.95
same,Reduction factor,"Escherichia coli; 0.1%, 50° C., 60′",4.90
same,Reduction factor,"Escherichia coli; 0.1%, room temperature, 15′",0.00
same,Reduction factor,"Escherichia coli; 0.1%, room temperature, 30′",0.54
same,Reduction factor,"Escherichia coli; 0.1%, room temperature, 60′",0.50
same,Activity on Mycobacterium terrae (in words),"[2]; 0.05% by weight, 50° C., 60 minutes","neither 0.05% by weight SC 50 nor 0.75% by weight POE, even acting for a time of 60 minutes, display any activity"
same,Reduction factor,"[2]; 30° C., 15′",0.00
same,Reduction factor,"[2]; 30° C., 30′",0.00
same,Reduction factor,"[2]; 30° C., 60′",0.00
same,Reduction factor,"[2]; 40° C., 15′",0.00
same,Reduction factor,"[2]; 40° C., 30′",0.00
same,Reduction factor,"[2]; 40° C., 60′",0.00
same,Reduction factor,"[2]; 50° C., 15′",3.10
same,Reduction factor,"[2]; 50° C., 30′",3.34
same,Reduction factor,"[2]; 50° C., 60′",3.48
same,Reduction factor,"[2]; room temperature, 15′",0.00
same,Reduction factor,"[2]; room temperature, 30′",0.00
same,Reduction factor,"[2]; room temperature, 60′",0.00
